Legend:
[1] = target: Glycogen synthase kinase-3 beta (Homo sapiens, UniProt P49841); test: Inhibition of GSK3-beta in human PC3M cells by ELISA
[2] = Inhibition of GSK3-beta in human PC3M cells by ELISA

Chain of Glycogen synthase kinase-3 beta (P49841 whole entry): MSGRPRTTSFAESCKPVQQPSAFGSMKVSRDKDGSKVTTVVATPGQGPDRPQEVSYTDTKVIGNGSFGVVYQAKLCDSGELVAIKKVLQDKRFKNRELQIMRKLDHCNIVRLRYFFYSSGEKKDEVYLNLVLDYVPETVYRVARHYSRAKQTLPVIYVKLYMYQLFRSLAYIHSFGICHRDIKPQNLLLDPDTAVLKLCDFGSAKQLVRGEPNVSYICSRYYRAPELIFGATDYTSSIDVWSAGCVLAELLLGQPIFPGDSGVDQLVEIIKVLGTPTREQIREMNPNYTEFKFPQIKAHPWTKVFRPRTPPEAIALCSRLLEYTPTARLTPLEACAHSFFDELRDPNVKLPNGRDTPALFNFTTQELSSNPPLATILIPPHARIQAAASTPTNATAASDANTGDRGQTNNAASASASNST

Row | SMILES | IC50 [1] | IC50 [2]
1 | O=c1cc(N2CCOCC2)oc2c(-c3ccccc3)cccc12 | 8.1 µM | 
2 | NCC1(Cc2ccc(Cl)cc2)CCN(c2ncnc3nc[nH]c23)CC1 |  | 1.7 µM
3 | NCC1(c2ccc(Cl)cc2)CCN(c2ccnc3[nH]ccc23)CC1 |  | 1.4 µM
4 | NCC1(c2ccc(Cl)cc2)CCN(c2ncnc3nc[nH]c23)CC1 |  | 1.3 µM
5 | NCC1CCN(c2ncnc3n[nH]cc23)CC1 |  | > 30 µM

The next lines start with the values.

Row | IC50 [1] | IC50 [2] | SMILES
6 |  | 15 µM | NC1CCN(c2ncnc3[nH]ccc23)CC1
7 |  | 0.6 µM | NC1(c2ccc(Cl)cc2)CCN(c2ncnc3[nH]ccc23)CC1
8 | 0.59 µM |  | NCC1(c2ccc(Cl)cc2)CCN(c2ncnc3[nH]ccc23)CC1
9 | 0.59 µM | 2 µM | NC(c1ccc(Cl)cc1)C1CCN(c2ccnc3[nH]ccc23)CC1 (centres undefined)
10 |  | > 30 µM | NC(c1ccccc1)C1CCN(c2ncnc3[nH]ccc23)CC1 (centres undefined)
11 | 1.4 µM |  | NCC1(Cc2ccc(Cl)cc2)CCN(c2ncnc3[nH]ccc23)CC1
12 |  | 11 µM | NCC1CCN(c2ncnc3[nH]ccc23)CC1
13 |  | > 30 µM | NC1CCN(c2ncnc3n[nH]cc23)CC1
